Assay results from patent publication US20050112573A1, “Method of detecting toxic substance” (priority 2001, published 2005).

Test system: yeast genes (level of expressed mRNA)
Assay: DNA chip analysis of expressed mRNA of yeast genes after 2 h culture with a toxic chemical substance
Assay type: cell-based, Saccharomyces cerevisiae S288C
Settings: for The level of expressed mRNA in the presence of chemical substance/ (ratio to absence): transport facilitation protein gene; for The level of expressed mRNA in the presence of chemical substance/: ratio to no chemical; for The level of expressed mRNA in the presence of chemical substance/ (ratio to absence of chemical substance): stress protein genes, DNA chip
Method in brief: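 Values are treated-to-control fluorescence ratios from a whole-yeast-genome DNA chip (65° C, over 12 h hybridization) using Cy3/Cy5-labelled cDNA from mRNA. Log-phase S288C cells in YPD at 25° C were exposed 2 h to a toxicant at sublethal, growth-inhibiting concentration.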

sodium dodecylbenzosulfonate [(17)]
The level of expressed mRNA in the presence of chemical substance/ (ratio to absence) (yeast gene YKL188C): 1.1 | The level of expressed mRNA in the presence of chemical substance/ (ratio to absence) (yeast gene YKL192C): 1.0 | The level of expressed mRNA in the presence of chemical substance/The level of expressed mRNA in the absence of chemical substance (yeast gene YKL193C): 1.2 | The level of expressed mRNA in the presence of chemical substance/ (ratio to absence) (yeast gene YKL209C): 1.1 | The level of expressed mRNA in the presence of chemical substance/ (ratio to absence) (yeast gene YKL217W): 1.7 | The level of expressed mRNA in the presence of chemical substance/in the absence of chemical substance (yeast gene YKL218C): 2.5 | The level of expressed mRNA in the presence of chemical substance/ (ratio to absence) (yeast gene YKL221W): 0.8 | The level of expressed mRNA in the presence of chemical substance/ (yeast gene YKR007W): 0.8 | The level of expressed mRNA in the presence of chemical substance/ (in its absence), gene YKR009C (yeast gene YKR009C, ratio of DNA chip fluorescence intensity to that without chemical substance): 1.9 | The level of expressed mRNA in the presence of chemical substance/ (yeast gene YKR020W): 1.3 | The level of expressed mRNA in the presence of chemical substance/ (in its absence), gene YKR034W (yeast gene YKR034W, ratio of DNA chip fluorescence intensity to that without chemical substance): 0.8 | The level of expressed mRNA in the presence of chemical substance/ (ratio to absence) (yeast gene YKR039W): 0.9 | The level of expressed mRNA in the presence of chemical substance/ (ratio to absence of chemical substance) (yeast gene YKR053C): 2.8 | The level of expressed mRNA in the presence of chemical substance/ in its absence, gene YKR058W (yeast gene YKR058W, energy system protein genes, 2 h culture with the chemical, ratio to control without chemical): 0.8 | The level of expressed mRNA in the presence of chemical substance/ (yeast gene YKR071C): 0.9 | The level of expressed mRNA in the presence of chemical substance/in the absence of chemical substance (yeast gene YKR097W): 1.1 | The level of expressed mRNA in the presence of chemical substance/ (ratio to absence) (yeast gene YKR105C): 0.8 | The level of expressed mRNA in the presence of chemical substance/ (ratio to absence) (yeast gene YKR106W): 0.9 | The level of expressed mRNA in the presence of chemical substance/ (yeast gene YLL025W): 1.0 | The level of expressed mRNA in the presence of chemical substance/ (ratio to absence) (yeast gene YLL028W): 1.2 | The level of expressed mRNA in the presence of chemical substance/ (ratio to absence) (yeast gene YLL055W): 1.1 | The level of expressed mRNA in the presence of chemical substance/ (ratio to absence) (yeast gene YLL061W): 0.6 | The level of expressed mRNA in the presence of chemical substance/ (yeast gene YLL062C): 0.9 | The level of expressed mRNA in the presence of chemical substance/ (in its absence), gene YLR006C (yeast gene YLR006C, ratio of DNA chip fluorescence intensity to that without chemical substance): 1.6 | The level of expressed mRNA in the presence of chemical substance/ (ratio to absence of chemical substance) (yeast gene YLR006C): 1.6 | The level of expressed mRNA in the presence of chemical substance/in the absence of chemical substance (yeast gene YLR027C): 1.3 | The level of expressed mRNA in the presence of chemical substance/ (ratio to absence) (yeast gene YLR092W): 1.0 | The level of expressed mRNA in the presence of chemical substance/ (yeast gene YLR108C): 1.0 | The level of expressed mRNA in the presence of chemical substance/The level of expressed mRNA in the absence of chemical substance (yeast gene YLR120C): 3.5 | The level of expressed mRNA in the presence of chemical substance/in the absence of chemical substance (yeast gene YLR133W): 1.1 | The level of expressed mRNA in the presence of chemical substance/The level of expressed mRNA in the absence of chemical substance (yeast gene YLR136C): 1.8 | The level of expressed mRNA in the presence of chemical substance/ (yeast gene YLR145W): 1.0 | The level of expressed mRNA in the presence of chemical substance/in the absence of chemical substance (yeast gene YLR155C): 1.4 | The level of expressed mRNA in the presence of chemical substance/ (yeast gene YLR156W): 1.1 | The level of expressed mRNA in the presence of chemical substance/in the absence of chemical substance (yeast gene YLR158C): 1.4 | The level of expressed mRNA in the presence of chemical substance/The level of expressed mRNA in the absence of chemical substance (yeast gene YLR178C): 2.0 | The level of expressed mRNA in the presence of chemical substance/in the absence of chemical substance (yeast gene YLR195C): 0.9 | The level of expressed mRNA in the presence of chemical substance/ (yeast gene YLR247C): 1.2 | The level of expressed mRNA in the presence of chemical substance/The level of expressed mRNA in the absence of chemical substance (yeast gene YLR250W): 1.4 | The level of expressed mRNA in the presence of chemical substance/ (yeast gene YLR267W): 1.2 | The level of expressed mRNA in the presence of chemical substance/ (yeast gene YLR280C): 1.2 | The level of expressed mRNA in the presence of chemical substance/ (yeast gene YLR290C): 1.3 | The level of expressed mRNA in the presence of chemical substance/ in its absence, gene YLR295C (yeast gene YLR295C, energy system protein genes, 2 h culture with the chemical, ratio to control without chemical): 0.9 | The level of expressed mRNA in the presence of chemical substance/ (ratio to absence), gene YLR295C (yeast gene YLR295C, mitochondria-located protein genes, 2 h culture with chemical): 0.9 | The level of expressed mRNA in the presence of chemical substance/in the absence of chemical substance (yeast gene YLR303W): 1.5 | The level of expressed mRNA in the presence of chemical substance/ (yeast gene YLR311C): 1.3 | The level of expressed mRNA in the presence of chemical substance/The level of expressed mRNA in the absence of chemical substance (yeast gene YLR327C): 3.3 | The level of expressed mRNA in the presence of chemical substance/in the absence of chemical substance (yeast gene YLR345W): 1.2 | The level of expressed mRNA in the presence of chemical substance/ (ratio to absence) (yeast gene YLR348C): 1.1 | The level of expressed mRNA in the presence of chemical substance/ (in its absence), gene YLR351C (yeast gene YLR351C, ratio of DNA chip fluorescence intensity to that without chemical substance): 1.3 | The level of expressed mRNA in the presence of chemical substance/The level of expressed mRNA in the absence of chemical substance (yeast gene YLR356W): 1.1 | The level of expressed mRNA in the presence of chemical substance/The level of expressed mRNA in the absence of chemical substance (yeast gene YLR362W): 1.2 | The level of expressed mRNA in the presence of chemical substance/ (in its absence), gene YLR375W (yeast gene YLR375W, ratio of DNA chip fluorescence intensity to that without chemical substance): 1.0 | The level of expressed mRNA in the presence of chemical substance/ (ratio to absence) (yeast gene YLR378C): 0.9 | The level of expressed mRNA in the presence of chemical substance/The level of expressed mRNA in the absence of chemical substance (yeast gene YLR391W): 1.4 | The level of expressed mRNA in the presence of chemical substance/The level of expressed mRNA in the absence of chemical substance (yeast gene YLR429W): 1.0 | The level of expressed mRNA in the presence of chemical substance/in the absence of chemical substance (yeast gene YML004C): 1.5 | The level of expressed mRNA in the presence of chemical substance/ (yeast gene YML068W): 1.0 | The level of expressed mRNA in the presence of chemical substance/ (ratio to absence) (yeast gene YML116W): 1.0 | The level of expressed mRNA in the presence of chemical substance/ in its absence, gene YML129C (yeast gene YML129C, energy system protein genes, 2 h culture with the chemical, ratio to control without chemical): 1.3 | The level of expressed mRNA in the presence of chemical substance/ (ratio to absence), gene YML129C (yeast gene YML129C, mitochondria-located protein genes, 2 h culture with chemical): 1.3 | The level of expressed mRNA in the presence of chemical substance/in the absence of chemical substance (yeast gene YML131W): 2.5 | The level of expressed mRNA in the presence of chemical substance/The level of expressed mRNA in the absence of chemical substance (yeast gene YMR004W): 0.9 | The level of expressed mRNA in the presence of chemical substance/ (ratio to absence), gene YMR023C (yeast gene YMR023C, mitochondria-located protein genes, 2 h culture with chemical): 1.1 | The level of expressed mRNA in the presence of chemical substance/ (yeast gene YMR034C): 1.8 | The level of expressed mRNA in the presence of chemical substance/ (yeast gene YMR041C): 0.8 | The level of expressed mRNA in the presence of chemical substance/ (ratio to absence) (yeast gene YMR056C): 1.0 | The level of expressed mRNA in the presence of chemical substance/ (ratio to absence) (yeast gene YMR058W): 0.6 | The level of expressed mRNA in the presence of chemical substance/The level of expressed mRNA in the absence of chemical substance (yeast gene YMR094W): 1.0 | The level of expressed mRNA in the presence of chemical substance/The level of expressed mRNA in the absence of chemical substance (yeast gene YMR104C): 2.8 | The level of expressed mRNA in the presence of chemical substance/ (yeast gene YMR178W): 1.1 | The level of expressed mRNA in the presence of chemical substance/ (ratio to absence of chemical substance) (yeast gene YMR186W): 0.7 | The level of expressed mRNA in the presence of chemical substance/ (ratio to absence) (yeast gene YMR203W): 0.8 | The level of expressed mRNA in the presence of chemical substance/The level of expressed mRNA in the absence of chemical substance (yeast gene YMR219W): 1.1 | The level of expressed mRNA in the presence of chemical substance/The level of expressed mRNA in the absence of chemical substance (yeast gene YMR226C): 1.6 | The level of expressed mRNA in the presence of chemical substance/ (yeast gene YMR253C): 1.2 | The level of expressed mRNA in the presence of chemical substance/ in its absence, gene YMR267W (yeast gene YMR267W, energy system protein genes, 2 h culture with the chemical, ratio to control without chemical): 0.9 | The level of expressed mRNA in the presence of chemical substance/ (ratio to absence), gene YMR267W (yeast gene YMR267W, mitochondria-located protein genes, 2 h culture with chemical): 0.9 | The level of expressed mRNA in the presence of chemical substance/ in its absence, gene YMR267W (yeast gene YMR267W, ratio of DNA chip fluorescence intensity to that without chemical substance): 0.9 | The level of expressed mRNA in the presence of chemical substance/The level of expressed mRNA in the absence of chemical substance (yeast gene YMR275C): 0.9 | The level of expressed mRNA in the presence of chemical substance/The level of expressed mRNA in the absence of chemical substance (yeast gene YMR276W): 1.2 | The level of expressed mRNA in the presence of chemical substance/ (in its absence), gene YMR278W (yeast gene YMR278W, ratio of DNA chip fluorescence intensity to that without chemical substance): 1.0 | The level of expressed mRNA in the presence of chemical substance/ (in its absence), gene YMR293C (yeast gene YMR293C, ratio of DNA chip fluorescence intensity to that without chemical substance): 0.8 | The level of expressed mRNA in the presence of chemical substance/The level of expressed mRNA in the absence of chemical substance (yeast gene YMR314W): 1.3 | The level of expressed mRNA in the presence of chemical substance/The level of expressed mRNA in the absence of chemical substance (yeast gene YNL006W): 1.0 | The level of expressed mRNA in the presence of chemical substance/The level of expressed mRNA in the absence of chemical substance (yeast gene YNL007C): 1.1 | The level of expressed mRNA in the presence of chemical substance/ (in its absence), gene YNL025C (yeast gene YNL025C, ratio of DNA chip fluorescence intensity to that without chemical substance): 0.7 | The level of expressed mRNA in the presence of chemical substance/ (ratio to absence) (yeast gene YNL055C): 1.2 | The level of expressed mRNA in the presence of chemical substance/ (ratio to absence of chemical substance) (yeast gene YNL064C): 0.7 | The level of expressed mRNA in the presence of chemical substance/in the absence of chemical substance (yeast gene YNL071W): 1.0 | The level of expressed mRNA in the presence of chemical substance/ (ratio to absence), gene YNL073W (yeast gene YNL073W, mitochondria-located protein genes, 2 h culture with chemical): 0.8 | The level of expressed mRNA in the presence of chemical substance/The level of expressed mRNA in the absence of chemical substance (yeast gene YNL093W): 3.0 | The level of expressed mRNA in the presence of chemical substance/ (yeast gene YNL122C): 1.0 | The level of expressed mRNA in the presence of chemical substance/ (ratio to absence) (yeast gene YNL142W): 1.0 | The level of expressed mRNA in the presence of chemical substance/ (in its absence), gene YNL192W (yeast gene YNL192W, ratio of DNA chip fluorescence intensity to that without chemical substance): 2.3
